US20240344241A1, “PROTEINACEOUS MOLECULES AND USES THEREFOR” (THE UNIVERSITY OF QUEENSLAND, priority 2021, published 2024)
Read-outs that look alike come from different tables or passages of the source. Bridge positions count the residues as written; N and C are the ends. Peptide text beside a SMILES is read from it.

What was measured:
Human β-FXIIa [1] = target: T1, Human β-FXIIa (Homo sapiens, UniProt P00748); assay: FXIIa competitive inhibition assay, fluorescent substrate Boc-QGR-MCA; type: biochemical
T1 construct: Human β-FXIIa was obtained from Molecular Innovations, together with human FXa, human FXIa, human α-thrombin, and human plasma kallikrein; purchased Molecular Innovations; host or cells: purified from human plasma
T1 sequence (P00748 373-615 limits assumed, other chains not shown): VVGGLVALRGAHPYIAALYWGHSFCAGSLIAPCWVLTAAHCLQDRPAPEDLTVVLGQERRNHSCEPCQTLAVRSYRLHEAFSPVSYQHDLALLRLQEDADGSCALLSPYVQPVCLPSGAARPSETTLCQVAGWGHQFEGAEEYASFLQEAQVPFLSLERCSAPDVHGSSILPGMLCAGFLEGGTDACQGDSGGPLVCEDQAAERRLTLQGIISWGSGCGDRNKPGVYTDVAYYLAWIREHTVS
Source text: Cyclic [I7F]MCoFx1 (also referred to as cyclic MCoFx6) was synthesized using solid phase peptide synthesis ([[…]] [SEQ ID NO: 97]). For this inhibitor, Tyr33 was mutated back to serine as per the original mRNA display screen (FIG. 1). Cyclic MCoFx6 was screened using a competitive inhibition assay, with the substrate being changed from a colorimetric substrate (Ac-QRFR-pNA in the data of Tables 7 and 10) to a fluorescent substrate (Boc-QGR-MCA) to allow the assay to be run with a lower concentration of enzyme. The assay was performed as described for Examples 2 and 3, except that the FXIIa concentration was 0.5 nM and the substrate concentration was 50 μM (KM=187 μM).
The new variants were screened using competitive inhibition assays, with the substrate being changed from a colorimetric substrate (Ac-QRFR-pNA in the data of Tables 7 and 10) to a fluorescent substrate (Boc-QGR-MCA) to allow the assay to be run with a lower concentration of enzyme. Assays were performed as described for Examples 2 and 3, except that the FXIIa concentration was 0.5 nM and the substrate concentration was 50 μM (KM=187 μM). […] The effect of amino acid substitutions within loop 2 (Arg12, Arg13), loop 5 (Ala25, Arg27) or loop 6 (Asp34) on the activity of cyclic MCoFx7 against FXIIa was determined (refer to Table 14). […] Additionally, mutating Arg to Glu (reversing the side chain charge) only led to two-fold weaker activity. The adjacent residue Arg13 could also be mutated to Lys with no change in activity. Within loop 5, mutating Ala25 to Lys produced a slight gain in activity, whereas the Ala to Pro mutation led to a slight decrease in activity. Both mutations at Arg27 led to losses in activity in the order of two-fold (His) or 3.2-fold (Gly).
(§1) The activity of acyclic and cyclic MCoFx1-5 and analogues thereof was assessed in competitive inhibition assays, as previously described in Swedberg et al. (2016) J Med Chem, 59: 7287-7292. Human β-FXIIa was obtained from Molecular Innovations, together with human FXa, human FXIa, human α-thrombin, and human plasma kallikrein. Human cationic trypsin and human plasmin were obtained from Sigma-Aldrich, and recombinant human matriptase was sourced from R&D Systems. Recombinant human urokinase (uPA) and recombinant human tissue plasminogen activator (tPA) were expressed in Expi293 cells, as previously described in Li et al. (2019) Chembiochem, 20: 46-50. FXIIa inhibition assays were performed in clear, low-binding 96-well plates using 250 μL (final volume) of assay buffer (0.1 M Tris-HCl pH 8.0, 0.1 M NaCl, 10 mM CaCl2 and 0.005% Triton X-100). Inhibitors were serially diluted and incubated with 10 nM FXIIa at room temperature to reach equilibrium. After adding 100 μM Ac-QRFR-pNA substrate (KM=162 μM), enzymatic activity was measured by monitoring release of the pNA moiety using a TECAN infinite M1000 Pro plate reader (A=405 nm, reading interval, 10 s; assay time course, 7 min). Assays were conducted in three times in duplicate. Substrate kinetic constants (Michaelis-Menten) and inhibition constants (Morrison K) were determined by non-linear regression using Prism 7 (GraphPad). Selectivity assays with off-target proteases were performed in a similar way, except that different concentrations of enzyme and substrate were used, as indicated in Table 16. For assays using a fluorescent substrate (peptide-4-methylcoumaryl-7-amide, MCA), black low-binding 96-well plates were used and activity was measured using a TECAN infinite M1000 pro plate reader (λex 360 nm, λem 460 nm, reading interval, 30 s; assay time course, 5-30 min).

[2] = target: T2, biotinylated human β-FXIIa (Homo sapiens, UniProt P00748); assay: Surface plasmon resonance binding to FXIIa
T2 construct: purchased Molecular Innovations
T2 sequence (P00748 373-615 limits assumed, other chains not shown): as above
Method: Binding kinetics of each peptide towards biotinylated human β-FXIIa (Molecular Innovations) and non-labelled zymogen FXII (Haematologic Technologies) were determined using a Biacore T200 machine (Cytiva). For β-FXIIa binding measurements, the running buffer was HBS-EP+(10 mM HEPES, 150 mM NaCl, 3 mM EDTA and 0.05% (v/v) surfactant P20, pH 7.4). Biotinylated β-FXIIa was immobilized on a Sensor Chip CAP (Cytiva) using Biotin CAPture Reagent (Cytiva). A series of concentrations of each peptide were injected as analyte and the binding kinetics were modelled using a 1:1 binding model. Regeneration of sensor surface was performed after each measurement cycle. For FXII binding measurements, the running buffer was PBST (137 mM NaCl, 2.7 mM KCl, 10 mM Na2HPO4, 1.8 mM KH2PO4, 0.05% Tween-20). Non-labelled FXII was immobilized on a Sensor Chip CM5 (Cytiva) using Amine Coupling Kit (Cytiva), achieving a final immobilization level of 2500 RU. Each peptide was flowed through immobilized FXII at 5 μM for 60 s and allowed dissociation for 150 s.

Human β-FXIIa [3] = target: T1, Human β-FXIIa; assay: FXIIa competitive inhibition assay, colorimetric substrate Ac-QRFR-pNA; type: biochemical
Method: as §1

bovine trypsin = target: T3, bovine trypsin (Bos taurus, UniProt P00760); assay: Surface plasmon resonance binding to trypsin
T3 sequence (P00760 24-246): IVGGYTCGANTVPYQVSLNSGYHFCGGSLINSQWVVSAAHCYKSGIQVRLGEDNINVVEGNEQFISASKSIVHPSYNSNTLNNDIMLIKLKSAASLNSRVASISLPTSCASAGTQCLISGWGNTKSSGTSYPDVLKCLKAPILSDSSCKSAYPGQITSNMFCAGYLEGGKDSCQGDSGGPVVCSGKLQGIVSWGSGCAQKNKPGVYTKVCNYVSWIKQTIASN

[4] = Table 7, FXIIa, cyclic form of the peptide, read-out: Ki (nM) Cyclic
[5] = Table 8, cyclic form, read-out: KD (nM) Trypsin Cyclic

SMILES	Kd [2]	Ki (Human β-FXIIa [3])	Kd (bovine trypsin)	Ki (Human β-FXIIa [3]; [4])	Kd (bovine trypsin; [5])	also measured
CC[C@H](C)[C@@H]1NC(=O)CNC(=O)CNC(=O)[C@H](CC(=O)O)NC(=O)[C@H](CO)NC(=O)CNC(=O)[C@H](CO)NC(=O)CNC(=O)[C@@H]2CSSC[C@@H]3NC(=O)[C@H](CC(=O)O)NC(=O)[C@H](CO)NC(=O)[C@H](CC(=O)O)NC(=O)[C@H](CCCNC(=N)N)NC(=O)[C@H](CCCNC(=N)N)NC(=O)[C@@H]4CSSC[C@H](NC(=O)[C@H]([C@@H](C)CC)NC(=O)[C@H](CSSC[C@H](NC1=O)C(=O)N1CCC[C@H]1C(=O)N[C@@H](CCCNC(=N)N)C(=O)N[C@@H]([C@@H](C)CC)C(=O)NCC(=O)N[C@@H](CCCNC(=N)N)C(=O)N[C@@H](CC(C)C)C(=O)N4)NC(=O)[C@H](C)NC(=O)CNC(=O)[C@@H]1CCCN1C3=O)C(=O)N[C@@H](CCCNC(=N)N)C(=O)N[C@@H](C)C(=O)N[C@@H]([C@@H](C)O)C(=O)N[C@@H](Cc1c[nH]cn1)C(=O)N[C@@H](Cc1ccccc1)C(=O)N2 [Cyclic [R27H]MCoFx7] (cyclo(ACICRATHFCGSGSDGGICPRIGRLCRRDSDCPG); disulfide 2-19, 4-26, 10-32)						Ki (Human β-FXIIa [1]): 0.12 ± 0.008 nM
CC[C@H](C)[C@H](NC(=O)CNC(=O)CNC(=O)[C@@H](N)CC(=O)O)C(=O)N[C@H]1CSSC[C@@H]2NC(=O)[C@H](C)NC(=O)CNC(=O)[C@@H]3CCCN3C(=O)[C@@H]3CSSC[C@@H](C(=O)NCC(=O)N[C@@H](CO)C(=O)NCC(=O)N[C@@H](CO)C(=O)O)NC(=O)[C@H](Cc4ccc(O)cc4)NC(=O)[C@H]([C@@H](C)O)NC(=O)[C@H](CCCNC(=N)N)NC(=O)[C@H](CCCNC(=N)N)NC(=O)[C@H]([C@@H](C)CC)NC(=O)[C@H](CSSC[C@H](NC(=O)[C@H](Cc4ccc(O)cc4)NC(=O)[C@H](C(C)C)NC(=O)[C@H](CC(C)C)NC(=O)[C@H]([C@@H](C)CC)NC(=O)[C@H](CCCNC(=N)N)NC(=O)[C@@H]4CCCN4C1=O)C(=O)N[C@@H](CCCNC(=N)N)C(=O)N[C@@H](CCCNC(=N)N)C(=O)N[C@@H](CC(=O)O)C(=O)N[C@@H](CO)C(=O)N[C@@H](CC(=O)O)C(=O)N3)NC(=O)[C@H]([C@@H](C)CC)NC2=O [MCoFx2 acyclic] (H-DGGICPRILVYCRRDSDCPGACICIRRTYCGSGS-OH; disulfide 5-22, 12-24, 18-30)	45.4 ± 2.9 nM	73 ± 3 nM	< 0.1 nM			
CC[C@H](C)[C@@H]1NC(=O)CNC(=O)CNC(=O)[C@H](CC(=O)O)NC(=O)[C@H](CO)NC(=O)CNC(=O)[C@H](CO)NC(=O)CNC(=O)[C@@H]2CSSC[C@@H]3NC(=O)[C@H](CC(=O)O)NC(=O)[C@H](CO)NC(=O)[C@H](CC(=O)O)NC(=O)[C@H](CCCNC(=N)N)NC(=O)[C@H](CCCNC(=N)N)NC(=O)[C@@H]4CSSC[C@H](NC(=O)[C@H]([C@@H](C)CC)NC(=O)[C@H](CSSC[C@H](NC1=O)C(=O)N1CCC[C@H]1C(=O)N[C@@H](CCCNC(=N)N)C(=O)N[C@@H]([C@@H](C)CC)C(=O)N[C@@H](CC(C)C)C(=O)N[C@@H](C(C)C)C(=O)N[C@@H](Cc1ccc(O)cc1)C(=O)N4)NC(=O)[C@H](C)NC(=O)CNC(=O)[C@@H]1CCCN1C3=O)C(=O)N[C@@H]([C@@H](C)CC)C(=O)N[C@@H](CCCNC(=N)N)C(=O)N[C@@H](CCCNC(=N)N)C(=O)N[C@@H]([C@@H](C)O)C(=O)N[C@@H](Cc1ccc(O)cc1)C(=O)N2 [MCoFx2 cyclic] (cyclo(ACICIRRTYCGSGSDGGICPRILVYCRRDSDCPG); disulfide 2-19, 4-26, 10-32)				12 ± 0.7 nM	< 0.1 nM	Kd ([2]; Table 7, FXIIa, cyclic form of the peptide, read-out: KD (nM) Cyclic): 10 nM
CC[C@H](C)[C@@H]1NC(=O)[C@@H]2CSSC[C@H](NC(=O)[C@H](CCCNC(=N)N)NC(=O)CNC(=O)CNC(=O)[C@@H](N)CC(=O)O)C(=O)N3CCC[C@H]3C(=O)N[C@@H](CCCNC(=N)N)C(=O)N[C@@H](CC(C)C)C(=O)N[C@@H](CC(C)C)C(=O)N[C@@H](CCCNC(=N)N)C(=O)N[C@@H](Cc3c[nH]c4ccccc34)C(=O)N[C@H]3CSSC[C@H](NC1=O)C(=O)N[C@@H](C)C(=O)N[C@@H](CCCNC(=N)N)C(=O)NCC(=O)NCC(=O)N[C@@H](CC(C)C)C(=O)N[C@H](C(=O)NCC(=O)N[C@@H](CO)C(=O)NCC(=O)N[C@@H](CO)C(=O)O)CSSC[C@H](NC(=O)[C@H](CC(=O)O)NC(=O)[C@H](CO)NC(=O)[C@H](CC(=O)O)NC(=O)[C@H](CCCNC(=N)N)NC(=O)[C@H](CCCNC(=N)N)NC3=O)C(=O)N1CCC[C@H]1C(=O)NCC(=O)N[C@@H](C)C(=O)N2 [MCoFx3 acyclic] (H-DGGRCPRLLRWCRRDSDCPGACICARGGLCGSGS-OH; disulfide 5-22, 12-24, 18-30)	167 ± 40 nM	525 ± 30 nM	2.39 nM			
CC[C@H](C)[C@@H]1NC(=O)[C@@H]2CSSC[C@@H]3NC(=O)[C@H](CCCNC(=N)N)NC(=O)CNC(=O)CNC(=O)[C@H](CC(=O)O)NC(=O)[C@H](CO)NC(=O)CNC(=O)[C@H](CO)NC(=O)CNC(=O)[C@@H]4CSSC[C@H](NC(=O)[C@H](CC(=O)O)NC(=O)[C@H](CO)NC(=O)[C@H](CC(=O)O)NC(=O)[C@H](CCCNC(=N)N)NC(=O)[C@H](CCCNC(=N)N)NC(=O)[C@H](CSSC[C@H](NC1=O)C(=O)N[C@@H](C)C(=O)N[C@@H](CCCNC(=N)N)C(=O)NCC(=O)NCC(=O)N[C@@H](CC(C)C)C(=O)N4)NC(=O)[C@H](Cc1c[nH]c4ccccc14)NC(=O)[C@H](CCCNC(=N)N)NC(=O)[C@H](CC(C)C)NC(=O)[C@H](CC(C)C)NC(=O)[C@H](CCCNC(=N)N)NC(=O)[C@@H]1CCCN1C3=O)C(=O)N1CCC[C@H]1C(=O)NCC(=O)N[C@@H](C)C(=O)N2 [MCoFx3 cyclic] (cyclo(ACICARGGLCGSGSDGGRCPRLLRWCRRDSDCPG); disulfide 2-19, 4-26, 10-32)				75 ± 3 nM	2.72 nM	Kd ([2]; Table 8, cyclic form, read-out: KD (nM) FXIIa Cyclic): 22.8 ± 1.6 nM
